Experimental data taken from the NIST ThermoML archive (doi:10.1016/j.fluid.2007.07.017).

Assay: xn = mol fraction of the nth substance listed
Conditions: Liquid, Vibrating tube method

C=C [ethene] + CCCCO
Conditions | mass density [kg/m3]
283.65 K, x1 = 0.17 | 781.4
283.65 K, x1 = 0.224 | 767.7
283.65 K, x1 = 0.322 | 743.7
283.65 K, x1 = 0.401 | 718.9
283.65 K, x1 = 0.47 | 695.8
283.65 K, x1 = 0.545 | 660.9
283.65 K, x1 = 0.98 | 323.2
283.65 K, x1 = 0.99 | 296.6
283.65 K, x1 = 0.994 | 287
290.8 K, x1 = 0.206 | 768.3
290.8 K, x1 = 0.265 | 752.1
290.8 K, x1 = 0.339 | 732
290.8 K, x1 = 0.43 | 707.5
290.8 K, x1 = 0.528 | 664.6
290.8 K, x1 = 0.622 | 624.4
290.8 K, x1 = 0.655 | 601.6
290.8 K, x1 = 0.691 | 585
290.8 K, x1 = 0.745 | 527.5
